ChEMBL document CHEMBL3885861, “Open TG-GATES”

Species on record: Rattus norvegicus
Assay: Open TG-GATES - Regimen: Single
Assay type: toxicity, organism-based, Sprague-Dawley
Design: regimen Single, gender Male, age 6 weeks
Settings: in vivo, po, 1000 mg/kg, route gavage, dose level High; for APTT / Bas / Eos / Fbg / Hb / Ht / Lym / MCH / MCHC / MCV / Mono / Neu / PT / Plat / RBC / Ret / WBC: tissue Blood; for KIDNEY_L / KIDNEY_R / KIDNEY_TOTAL: tissue Kidney; for LIVER: tissue Liver; for A/G / ALP / ALT / AST / BUN / CRE / Ca / Cl / DBIL / GLC / IP / K / LDH / Na / PL / RALB / TBIL / TC / TG / TP / gamma-GTP: tissue Plasma

Compound `CC(C)(S)[C@@H](N)C(=O)O` [PENICILLAMINE] has a TERMINAL_BW (3 h) of 206.7 g, an APTT (3 h) of 16.4 s and a Bas (3 h) of 0%. For the same compound, the Eos (3 h) was 1%, the Fbg (3 h) was 281.4 mg/dL and the Hb (3 h) was 13.2 g/dL. The Ht (3 h) was 40.7%, the Lym (3 h) was 77% and the MCH (3 h) was 20.5 pg. For the same compound, the MCHC (3 h) was 32.3%, the MCV (3 h) was 63.4 fL and the Mono (3 h) was 3.2%. For the same compound, the Neu (3 h) was 18.4%, the PT (3 h) was 15.6 s and the Plat (3 h) was 128.4 x10_4/uL. The RBC (3 h) was 642.8 x10_4/ul, the Ret (3 h) was 9.2% and the WBC (3 h) was 83.2 x10_2/uL. It also gave a KIDNEY_L (3 h) of 0.9 g, a KIDNEY_R (3 h) of 0.9 g and a KIDNEY_TOTAL (3 h) of 1.8 g. The LIVER (3 h) was 8.6 g, the A/G (3 h) was 0.9 and the ALP (3 h) was 756.4 IU/L. The ALT (3 h) was 41.8 IU/L, the AST (3 h) was 75.6 IU/L and the BUN (3 h) was 9 mg/dL. For the same compound, the CRE (3 h) was 0.2 mg/dL, the Ca (3 h) was 10.7 mg/dL and the Cl (3 h) was 104.6 meq/L. For the same compound, the DBIL (3 h) was 0.01 mg/dL, the GLC (3 h) was 187 mg/dL and the IP (3 h) was 8.3 mg/dL. For the same compound, the K (3 h) was 4.3 meq/L, the LDH (3 h) was 74 IU/L and the Na (3 h) was 141.4 meq/L. It also gave a PL (3 h) of 141 mg/dL, an RALB (3 h) of 2.5 g/dL and a TBIL (3 h) of 0.032 mg/dL. The TC (3 h) was 78 mg/dL, the TG (3 h) was 67.2 mg/dL and the TP (3 h) was 5.1 g/dL. The gamma-GTP (3 h) was 1.2 IU/L, the TERMINAL_BW (6 h) was 203.8 g and the APTT (6 h) was 16.5 s. The Bas (6 h) was 0%, the Eos (6 h) was 0.6% and the Fbg (6 h) was 314 mg/dL. The Hb (6 h) was 13.2 g/dL, the Ht (6 h) was 41% and the Lym (6 h) was 71.8%. It also gave an MCH (6 h) of 20.8 pg, an MCHC (6 h) of 32.1% and an MCV (6 h) of 64.7 fL. The Mono (6 h) was 4.2%, the Neu (6 h) was 22.2% and the PT (6 h) was 14.8 s. For the same compound, the Plat (6 h) was 126.9 x10_4/uL, the RBC (6 h) was 635.2 x10_4/ul and the Ret (6 h) was 9.5%. For the same compound, the WBC (6 h) was 86.9 x10_2/uL, the KIDNEY_L (6 h) was 0.9 g and the KIDNEY_R (6 h) was 0.9 g. For the same compound, the KIDNEY_TOTAL (6 h) was 1.8 g, the LIVER (6 h) was 8 g and the A/G (6 h) was 1. For the same compound, the ALP (6 h) was 741.6 IU/L, the ALT (6 h) was 35.8 IU/L and the AST (6 h) was 70.8 IU/L. The BUN (6 h) was 8 mg/dL, the CRE (6 h) was 0.2 mg/dL and the Ca (6 h) was 10.6 mg/dL. For the same compound, the Cl (6 h) was 105.4 meq/L, the DBIL (6 h) was 0.004 mg/dL and the GLC (6 h) was 173.6 mg/dL. The IP (6 h) was 9.3 mg/dL, the K (6 h) was 4.2 meq/L and the LDH (6 h) was 80.8 IU/L. It also gave a Na (6 h) of 141.4 meq/L, a PL (6 h) of 134.6 mg/dL and an RALB (6 h) of 2.5 g/dL. The TBIL (6 h) was 0.028 mg/dL, the TC (6 h) was 79.8 mg/dL and the TG (6 h) was 31.4 mg/dL. The TP (6 h) was 5.2 g/dL, the gamma-GTP (6 h) was 1 IU/L and the TERMINAL_BW (9 h) was 203.4 g. For the same compound, the APTT (9 h) was 16.5 s, the Bas (9 h) was 0% and the Eos (9 h) was 1%. It also gave a Fbg (9 h) of 294.2 mg/dL, a Hb (9 h) of 13 g/dL and a Ht (9 h) of 40.6%. It also gave a Lym (9 h) of 73.6%, an MCH (9 h) of 20.2 pg and an MCHC (9 h) of 32.2%. For the same compound, the MCV (9 h) was 62.9 fL, the Mono (9 h) was 3.2% and the Neu (9 h) was 21.6%. For the same compound, the PT (9 h) was 15.4 s, the Plat (9 h) was 116 x10_4/uL and the RBC (9 h) was 645 x10_4/ul. For the same compound, the Ret (9 h) was 9%, the WBC (9 h) was 82.2 x10_2/uL and the KIDNEY_L (9 h) was 1 g. For the same compound, the KIDNEY_R (9 h) was 0.9 g, the KIDNEY_TOTAL (9 h) was 1.9 g and the LIVER (9 h) was 7.6 g. It also gave an A/G (9 h) of 1, an ALP (9 h) of 664.8 IU/L and an ALT (9 h) of 31.4 IU/L. The AST (9 h) was 65.4 IU/L, the BUN (9 h) was 7.8 mg/dL and the CRE (9 h) was 0.2 mg/dL. It also gave a Ca (9 h) of 10.5 mg/dL, a Cl (9 h) of 107 meq/L and a DBIL (9 h) of 0.01 mg/dL. For the same compound, the GLC (9 h) was 177 mg/dL, the IP (9 h) was 10.2 mg/dL and the K (9 h) was 4.3 meq/L. For the same compound, the LDH (9 h) was 67.4 IU/L, the Na (9 h) was 142.6 meq/L and the PL (9 h) was 127 mg/dL. The RALB (9 h) was 2.5 g/dL, the TBIL (9 h) was 0.036 mg/dL and the TC (9 h) was 73.2 mg/dL. The TG (9 h) was 21.4 mg/dL, the TP (9 h) was 5.1 g/dL and the gamma-GTP (9 h) was 0.8 IU/L. The TERMINAL_BW (24 h) was 215.2 g, the APTT (24 h) was 16.2 s and the Bas (24 h) was 0%. It also gave an Eos (24 h) of 1.2%, a Fbg (24 h) of 291 mg/dL and a Hb (24 h) of 13.4 g/dL. The Ht (24 h) was 41.2%, the Lym (24 h) was 75.4% and the MCH (24 h) was 20.8 pg. The MCHC (24 h) was 32.4%, the MCV (24 h) was 64.2 fL and the Mono (24 h) was 3.2%. For the same compound, the Neu (24 h) was 19.8%, the PT (24 h) was 14.2 s and the Plat (24 h) was 116.1 x10_4/uL. For the same compound, the RBC (24 h) was 642.2 x10_4/ul, the Ret (24 h) was 7.1% and the WBC (24 h) was 85.6 x10_2/uL. The KIDNEY_L (24 h) was 0.9 g, the KIDNEY_R (24 h) was 0.9 g and the KIDNEY_TOTAL (24 h) was 1.9 g. For the same compound, the LIVER (24 h) was 9.8 g, the A/G (24 h) was 0.9 and the ALP (24 h) was 1271.2 IU/L. For the same compound, the ALT (24 h) was 47.8 IU/L, the AST (24 h) was 68 IU/L and the BUN (24 h) was 14.6 mg/dL. It also gave a CRE (24 h) of 0.2 mg/dL, a Ca (24 h) of 11 mg/dL and a Cl (24 h) of 105.2 meq/L. For the same compound, the DBIL (24 h) was 0.012 mg/dL, the GLC (24 h) was 176 mg/dL and the IP (24 h) was 9 mg/dL. The K (24 h) was 4.1 meq/L, the LDH (24 h) was 86.8 IU/L and the Na (24 h) was 143.8 meq/L. The PL (24 h) was 155.6 mg/dL, the RALB (24 h) was 2.6 g/dL and the TBIL (24 h) was 0.028 mg/dL. For the same compound, the TC (24 h) was 85 mg/dL, the TG (24 h) was 85.2 mg/dL and the TP (24 h) was 5.4 g/dL. For the same compound, the gamma-GTP (24 h) was 0.8 IU/L.
